This is an account of results in publication PMC6272992, “Synthesis and Cytotoxic Effect of Some Novel 1,2-Dihydropyridin-3-carbonitrile and Nicotinonitrile Derivatives” (Molecules, 2015).

Values after ≈ are worked out from the molar mass of the structure shown. Where only a bound is given, the exact number is not on record here.

The subject of one data set is SF-268 (CNS cancer). Briefly: SRB cancer cell growth assay, SF-268. The format is cell-based, human. More on the design: key to activity class SF-268: highly active; b: moderately active; weakly active. The note with it: for IC50: Homo sapiens, SF-268, 48 h exposure, SRB, read-out: IC50 (μg/mL) SF-268. On the procedure:
(§1) The in vitro cytotoxic activity the newly synthesized compounds against human breast cell line (MCF7), non-small cell lung cancer NCI-H460, CNS cancer SF-268 and WI 38 (normal fibroblast cells) were evaluated using doxorubicin as the reference drug, according to the method reported by Skehan et al..
(§2) The newly synthesized compounds were evaluated in vitro against three human cancer cell lines; which are MCF-7 (breast adenocarcinoma), NCI-H460 (non-small cell lung cancer) and SF-268 (CNS cancer), and WI 38 (normal fibroblast cells) were used in this study. MCF-7 was obtained from the European Collection of Cell Cultures (ECACC, Salisbury, UK) but NCI-H460, SF-268 and WI 38 were kindly provided by the National Cancer Institute (NCI, Cairo, Egypt). They grow as monolayers routinely maintained in RPMI-1640 medium supplemented with 5% heat inactivated fetal bovine serum (FBS), 2 mM glutamine and antibiotics (penicillin 100 U/mL, streptomycin 100 µg/mL), at 37 °C in a humidified atmosphere containing 5% CO2. Exponentially growing cells were obtained by plating 1.5 × 10^5 cells/mL for MCF-7 and SF-268, and 0.75 × 10^4 cells/mL for NCI-H460 followed by 24 h of incubation. The effect of the vehicle solvent (DMSO) on the growth of these cell lines was evaluated in all experiments by exposing untreated control cells to the maximum concentration (0.5%) of DMSO used in each assay.
(§3) The effect of compounds on the in vitro growth of human tumor cell lines were evaluated according to the procedure adopted by the National Cancer Institute (NCI, […], USA) in the “In vitro Anticancer Drug Discovery Screen” that uses the protein-binding dye sulforhodamine B (SRB) to assess cell growth. In the assay protocol, all cells were incubated at 37 °C under humidified atmosphere containing 5% CO2. Briefly, exponentially cells growing in 96-well plates were then exposed for 48 h to five serial concentrations of each compound, starting from a maximum concentration of 150 μg/mL. Following this exposure period, adherent cells were fixed, washed and stained. The bound stain was solubilized and the absorbance was measured at 492 nm in a Power Wave XS plate reader (Bio-Tek Instruments Inc., Winston, NC, USA). For each test compound and cell line, a dose response curve was obtained and the inhibitory concentration of 50% (IC50), corresponding to the concentration of the compounds that inhibited 50% of the net cell growth was calculated as described elsewhere. Doxorubicin was used as a positive control and tested in the same manner.

The test system of data set [1] is WI 38 (normal fibroblast cells). Briefly: SRB cell growth assay, normal cells WI 38. The note with it: 48 h exposure, non-cytotoxic = IC50 > 100 μg/mL; for IC50: Homo sapiens. It is filed as cell-based, human. On the procedure:
as §1, §2, §3

The subject of data set [2] is NCI-H460 (non-small cell lung cancer). Briefly: SRB cancer cell growth assay, NCI-H460. The format is cell-based, human. Further details: key to activity class NCI-H460: highly active; b: moderately active; weakly active. The note with it: for IC50: Homo sapiens, NCI-H460, 48 h exposure, SRB, read-out: IC50 (μg/mL) NCI-H460. As to the method:
as §1, §2, §3

In data set [3] the test system is MCF-7 (breast adenocarcinoma). The experiment in a line: SRB cancer cell growth assay, MCF-7. The note with it: for IC50: Homo sapiens, MCF7, MCF-7, 48 h exposure, SRB, read-out: IC50 (μg/mL) MCF-7. Further details: key to activity class MCF-7: highly active; b: moderately active; weakly active. The format is cell-based, human. As to the method: as §1, §2, §3

What is called melting point is the temperature of the solid-liquid transition. Compound `N#Cc1c(N)c2c(-c3ccc(F)cc3)cc(-c3ccc(Cl)cc3Cl)nc2[nH]c1=O` [Compound 7, 4-Amino-7-(2,4-dichlorophenyl)-5-(4-fluorophenyl)-2-oxo-1,2-dihydro-1,8-naphthyridine-3-carbonitrile] displayed a melting point of 188 to 189 °C. In the data set with SF-268 (CNS cancer), the IC50 came out at 62.1 ± 3.61 µg/mL (≈ 146 µM) and the “activity class SF-268” value is recorded as “c”. The same compound registered an IC50 in data set [1] of 23 ± 8.2 µg/mL (≈ 54 µM). Also, in data set [2], the IC50 stood at 74 ± 3.65 µg/mL (≈ 174 µM) and the “activity class NCI-H460” value is listed as “c”. Also, in data set [3], the IC50 was found to be 36.2 ± 2.14 µg/mL (≈ 85.2 µM) and the “activity class MCF-7” value is given as “c”.
For `N#Cc1c(-c2ccc(F)cc2)cc(-c2ccc(Cl)cc2Cl)nc1NN=Cc1ccccc1Br` [Compound 21a, 2-[2-(2-Bromobenzylidene)hydrazinyl]-6-(2,4-dichlorophenyl)-4-(4-fluorophenyl)nicotinonitrile], the melting point is 226 to 228 °C.
With `COc1ccc(C=NNc2nc(-c3ccc(Cl)cc3Cl)cc(-c3ccc(F)cc3)c2C#N)cc1OC` [Compound 21d, 6-(2,4-Dichlorophenyl)-2-[2-(3,4-dimethoxybenzylidene)hydrazinyl]-4-(4-fluorophenyl) nicotinonitrile], the melting point is 278 to 280 °C. Also, in the data set on SF-268 (CNS cancer), the IC50 was 32.5 ± 6.04 µg/mL (≈ 62.2 µM) and the “activity class SF-268” value was “b”. Further, in data set [1], the “IC50 (μg/mL) WI 38” value is reported as “non-cytotoxic”. In data set [2], the IC50 was determined as 45 ± 10.5 µg/mL (≈ 86.2 µM) and the “activity class NCI-H460” value is given as “c”. In data set [3], the IC50 came to 66 ± 8.25 µg/mL (≈ 127 µM) and the “activity class MCF-7” value was “c”.
For `N#Cc1c(-c2ccc(F)cc2)cc(-c2ccc(Cl)cc2Cl)nc1OCC(=O)NN` [Compound 9, 2-[3-Cyano-6-(2,4-dichlorophenyl)-4-(4-fluorophenyl)pyridin-2-yloxy]acetohydrazide], the melting point was 197 to 199 °C. Also, in the data set with SF-268 (CNS cancer), the IC50 is 0.46 ± 0.06 µg/mL (≈ 1.07 µM) and the “activity class SF-268” value is recorded as “a”. In data set [1], this compound registered an IC50 of 62.2 ± 2.02 µg/mL (≈ 144 µM). In addition, in data set [2], the IC50 came out at 2.3 ± 2.86 µg/mL (≈ 5.33 µM) and the “activity class NCI-H460” value was “a”. Moreover, in data set [3], the IC50 was 2.41 ± 1.24 µg/mL (≈ 5.59 µM) and the “activity class MCF-7” value is “a”.
`N#Cc1c(-c2ccc(F)cc2)cc(-c2ccc(Cl)cc2Cl)nc1C(C#N)C#N` [Compound 16, 2-[3-Cyano-6-(2,4-dichlorophenyl)-4-(4-fluorophenyl)pyridin-2-yl]malononitrile] returned a melting point of 99 to 101 °C. For the same compound, in the data set on SF-268 (CNS cancer), the IC50 was determined as 0.01 ± 0.003 µg/mL (≈ 0.0246 µM) and the “activity class SF-268” value is reported as “a”. Besides, in data set [1], the “IC50 (μg/mL) WI 38” value is recorded as “non-cytotoxic” and the IC50 was greater than 100 µg/mL. For the same compound, in data set [2], the IC50 is 0.02 ± 0.001 µg/mL (≈ 0.0491 µM) and the “activity class NCI-H460” value was “a”. Besides, in data set [3], the IC50 is 0.01 ± 0.002 µg/mL (≈ 0.0246 µM) and the “activity class MCF-7” value is on record as “a”.
For the compound `Nc1nnc2[nH]c(-c3ccc(Cl)cc3Cl)cc(-c3ccc(F)cc3)c1-2` [Compound 4, 6-(2,4-Dichlorophenyl)-4-(4-fluorophenyl)-7H-pyrazolo[3,4-b]pyridin-3-amine], the melting point was in the range of 309 to 311 °C. In the data set on SF-268 (CNS cancer), the IC50 amounted to 69 ± 9.15 µg/mL (≈ 185 µM) and the “activity class SF-268” value is “c”. In addition, the IC50 in data set [1] came to 18.6 ± 1.21 µg/mL (≈ 49.9 µM). For the same compound, in data set [2], the IC50 stood at 56.8 ± 8.2 µg/mL (≈ 152 µM) and the “activity class NCI-H460” value is on record as “c”. For the same compound, in data set [3], the IC50 is 67 ± 6.23 µg/mL (≈ 180 µM) and the “activity class MCF-7” value is on record as “c”.
With `N#Cc1c(-c2ccc(F)cc2)cc(-c2ccc(Cl)cc2Cl)[nH]c1=O` [Compound 2, 6-(2,4-Dichlorophenyl)-4-(4-fluorophenyl)-2-oxo-1,2-dihydropyridin-3-carbonitrile], the melting point was in the range of 276 to 277 °C.
Take `N#Cc1c(-c2ccc(F)cc2)cc(-c2ccc(Cl)cc2Cl)nc1NN=C1C(=O)Nc2ccccc21` [Compound 20, 6-(2,4-Dichlorophenyl)-4-(4-fluorophenyl)-2-[2-(2-oxoindolin-3-ylidene)hydrazinyl]nicotinonitrile]: the melting point lay within 268 to 269 °C. Further, in the data set with SF-268 (CNS cancer), the IC50 turned out to be 2.34 ± 0.51 µg/mL (≈ 4.66 µM) and the “activity class SF-268” value is recorded as “a”. The IC50 in data set [1] was 72.5 ± 2.4 µg/mL (≈ 144 µM). In data set [2], the IC50 was 0.9 ± 0.12 µg/mL (≈ 1.79 µM) and the “activity class NCI-H460” value is reported as “a”. In addition, in data set [3], the IC50 stood at 0.66 ± 0.21 µg/mL (≈ 1.31 µM) and the “activity class MCF-7” value is reported as “a”.
In the case of `N#Cc1c(-c2ccc(F)cc2)cc(-c2ccc(Cl)cc2Cl)nc1N1CCOCC1` [Compound 15b, 6-(2,4-Dichlorophenyl)-4-(4-fluorophenyl)-2-morpholinonicotinonitrile], the melting point was in the range of 112 to 114 °C.
The same measure, in the same setting: the same measure for `N#Cc1c(-c2ccc(F)cc2)cc(-c2ccc(Cl)cc2Cl)nc1NN=Cc1cccc2ccccc12` [Compound 21e, 6-(2,4-Dichlorophenyl)-4-(4-fluorophenyl)-2-[2-(naphthalen-1-ylmethylene)hydrazinyl] nicotinonitrile]: 296 to 298 °C; for `N#Cc1c(-c2ccc(F)cc2)cc(-c2ccc(Cl)cc2Cl)nc1NCCc1ccccc1` [Compound 14, 6-(2,4-Dichlorophenyl)-4-(4-fluorophenyl)-2-(phenylethylamino)nicotinonitrile]: 142 to 143 °C; for `N#Cc1c(-c2ccc(F)cc2)cc(-c2ccc(Cl)cc2Cl)nc1NN=Cc1ccc([N+](=O)[O-])cc1` [Compound 21b, 6-(2,4-Dichlorophenyl)-4-(4-fluorophenyl)-2-[2-(4-nitrobenzylidene)hydrazinyl]nicotinonitrile]: 281 to 283 °C.
As for `CCOC(=O)COc1nc(-c2ccc(Cl)cc2Cl)cc(-c2ccc(F)cc2)c1C#N` [Compound 8, Ethyl 2-[3-cyano-6-(2,4-dichlorophenyl)-4-(4-fluorophenyl)pyridin-2-yloxy]acetate], the melting point lay within 119 to 121 °C. In the data set with SF-268 (CNS cancer), the IC50 was found to be 0.02 ± 0.045 µg/mL (≈ 0.0449 µM) and the “activity class SF-268” value was “a”. For the same compound, in data set [1], the “IC50 (μg/mL) WI 38” value was “non-cytotoxic” and the IC50 was greater than 100 µg/mL. In addition, in data set [2], the IC50 was determined as 0.01 ± 0.002 µg/mL (≈ 0.0225 µM) and the “activity class NCI-H460” value is given as “a”. Besides, in data set [3], the IC50 was determined as 0.02 ± 0.002 µg/mL (≈ 0.0449 µM) and the “activity class MCF-7” value is recorded as “a”.
On to `N#Cc1c(-c2ccc(F)cc2)cc(-c2ccc(Cl)cc2Cl)nc1NCc1ccccc1` [Compound 12, 2-(Benzylamino)-6-(2,4-dichlorophenyl)-4-(4-fluorophenyl)nicotinonitrile], for which the melting point is 158 to 159 °C.
For `N#Cc1c(-c2ccc(F)cc2)cc(-c2ccc(Cl)cc2Cl)nc1NN` [Compound 17, 6-(2,4-Dichlorophenyl)-4-(4-fluorophenyl)-2-hydrazinylnicotinonitrile], the melting point lay in the range of 223 to 224 °C. Further, in the data set with SF-268 (CNS cancer), the IC50 was 2.19 ± 0.83 µg/mL (≈ 5.87 µM) and the “activity class SF-268” value is “a”. Further, the IC50 in data set [1] turned out to be 64.1 ± 1.22 µg/mL (≈ 172 µM). Moreover, in data set [2], the IC50 worked out at 0.86 ± 0.02 µg/mL (≈ 2.3 µM) and the “activity class NCI-H460” value is recorded as “a”. Moreover, in data set [3], the IC50 was determined as 0.61 ± 0.082 µg/mL (≈ 1.63 µM) and the “activity class MCF-7” value is given as “a”.
With `Cc1cc(C)n(-c2nc(-c3ccc(Cl)cc3Cl)cc(-c3ccc(F)cc3)c2C#N)n1` [Compound 19, 6-(2,4-Dichlorophenyl)-2-(3,5-dimethyl-1H-pyrazol-1-yl)-4-(4-fluorophenyl)nicotinonitrile], the melting point was 287 to 289 °C. In the data set with SF-268 (CNS cancer), the IC50 stood at 10.4 ± 4.19 µg/mL (≈ 23.8 µM) and the “activity class SF-268” value was “a”. Besides, the IC50 in data set [1] is 50.2 ± 10.2 µg/mL (≈ 115 µM). Further, in data set [2], the IC50 worked out at 62.3 ± 10.3 µg/mL (≈ 142 µM) and the “activity class NCI-H460” value is reported as “c”. Besides, in data set [3], the IC50 was 75.2 ± 13.9 µg/mL (≈ 172 µM) and the “activity class MCF-7” value is “c”.
Compound `N#Cc1c(-c2ccc(F)cc2)cc(-c2ccc(Cl)cc2Cl)nc1Cl` [Compound 11, 2-Chloro-6-(2,4-dichlorophenyl)-4-(4-fluorophenyl)nicotinonitrile] showed a melting point of 181 to 182 °C.
Take `COc1cccc2c1C(=O)c1c(O)c3c(c(O)c1C2=O)C[C@@](O)(C(=O)CO)C[C@@H]3O[C@H]1C[C@H](N)[C@H](O)[C@H](C)O1` [Doxorubicin, reference compound]: the IC50 with SF-268 (CNS cancer) is 0.09 ± 0.007 µg/mL (≈ 0.166 µM); in data set [2] it was 0.09 ± 0.008 µg/mL (≈ 0.166 µM); in data set [3], 0.04 ± 0.008 µg/mL (≈ 0.0736 µM). Besides, the “IC50 (μg/mL) WI 38” value in data set [1] is on record as “non-cytotoxic”.
